How the values were obtained:
Format in all cases: cell-based
[1] = tested on: Bifidobacterium breve strain JCM1192; experiment: activity of chenodeoxycholic acid uptake by Bifidobacterium breve strain JCM1192 in the presence of an oligosaccharide; settings: for chenodeoxycholic acid concentration in the cells relative to that of the outside of the cells: 14C-labeled chenodeoxycholic acid, oligosaccharide added at 15 minutes after reaction start, maximum rise
Description: (§1) Lactic acid bacteria were cultured in a commercially available MRS medium overnight. The composition of the medium was as follows:
The harvested cells were washed with a buffer (pH 7.0) of 50 mM potassium phosphate containing 1 mM magnesium sulfate, and then the washed cells were re-suspended in a buffer comprising the same composition. The resulting cell suspension was allowed to stand for 30 minutes to make the cell membrane of the cells the state of deactivation. Then, the cells were harvested by centrifuging the suspension and washed with a buffer (pH 7.0) of 50 mM potassium phosphate containing 1 mM magnesium sulfate. Thereafter, the washed cells were re-suspended in a buffer comprising the same composition, and the cell suspension was adjusted so as to have the turbidity of 10.
(§2) To 96 μl of the cell suspension prepared as above, 2 μl of 6 mM cholic acid solution (cholic acid (chenodeoxycholic acid) labeled with ^14C, 16 mCi/mmol) was added, and after allowing the resulting suspension to stand for 15 minutes, 0.1 μl of 0.33 M oligosaccharide solution was added thereto, and the measurement of the activity of bile acid uptake was started. After a predetermined time, the reaction was stopped by adding 3 ml of a buffer of 100 mM potassium phosphate containing 100 mM […], and then the reaction solution was filtered through a cellulose acetate membrane (pore size: 0.45 μm), and the radioactivity left on the membrane was measured by a scintillation counter. In addition, as a control, the radioactivity of a sample adding no oligosaccharide was measured similarly.

[2] = tested on: Lactobacillus salivarius ssp. salicinius strain JCM1044; experiment: activity of cholic acid uptake by Lactobacillus salivarius ssp. salicinius strain JCM1044 in the presence of an oligosaccharide; settings: 14C-labeled cholic acid; oligosaccharide added at 15 minutes after reaction start; control without oligosaccharide unchanged
Description: as §1
(§3) The harvested cells were washed with a buffer (pH 7.0) of 50 mM potassium phosphate containing 1 mM magnesium sulfate, and then the washed cells were re-suspended in a buffer comprising the same composition. The resulting cell suspension was allowed to stand for 30 minutes to make the cell membrane of the cells the state of deactivation. Then, the cells were harvested by centrifuging the suspension and washed with a buffer (pH 7.0) of 50 mM potassium phosphate containing 1 mM magnesium sulfate. […]
as §2, with “In addition, as a control, the radioactivity of a sample adding no oligosaccharide was measured similarly.” left out

[3] = tested on: Bifidobacterium breve strain JCM1192; experiment: activity of cholic acid uptake by Bifidobacterium breve strain JCM1192 in the presence of an oligosaccharide; settings: 14C-labeled cholic acid; oligosaccharide added at 15 minutes after reaction start; control without oligosaccharide unchanged
Description: as §1, §3
as §2, with “In addition, as a control, the radioactivity of a sample adding no oligosaccharide was measured similarly.” left out

[4] = tested on: Bifidobacterium infantis strain JCM1222; experiment: cholic acid uptake by Bifidobacterium infantis strain JCM1222 in a nystose added-cell suspension
Description: as §1, §3
as §2, with “In addition, as a control, the radioactivity of a sample adding no oligosaccharide was measured similarly.” left out

SMILES	chenodeoxycholic acid concentration in the cells relative to that of the outside of the cells [1]	cholic acid concentration in the cells relative to that of the outside of the cells [2]	cholic acid concentration in the cells relative to that of the outside of the cells [3]	chenodeoxycholic acid concentration in the cells relative to outside at equilibrium after passive elimination ([1]; after oligosaccharide almost consumed (after 30 minutes), concentration came to equilibrium)	cholic acid incorporation into the cells [4]
OC[C@H]1O[C@H](OC[C@H]2O[C@H](O[C@]3(CO)O[C@H](CO)[C@@H](O)[C@@H]3O)[C@H](O)[C@@H](O)[C@@H]2O)[C@H](O)[C@@H](O)[C@H]1O [raffinose]	about 6 times	about 8 times	about 30 times	–	–
OC[C@H]1O[C@@](CO)(OC[C@@]2(O[C@H]3O[C@H](CO)[C@@H](O)[C@H](O)[C@H]3O)O[C@H](CO)[C@@H](O)[C@@H]2O)[C@@H](O)[C@@H]1O [1-kestose]	about 15 times	about 13 times	about 24 times	about 2 times	–
OC[C@H]1O[C@@](CO)(OC[C@@]2(OC[C@@]3(O[C@H]4O[C@H](CO)[C@@H](O)[C@H](O)[C@H]4O)O[C@H](CO)[C@@H](O)[C@@H]3O)O[C@H](CO)[C@@H](O)[C@@H]2O)[C@@H](O)[C@@H]1O [nystose]	–	–	–	–	cholic acid was incorporated into the cells

Reference: patent US20040208859A1, “Bile acid absorbent/adsorbent” (priority 2001, published 2004)
